Test results published in paper PMC8490327 (Environment international, 2021).

Experiments:
[1] = Absolute quantitation of circulating PFAS; format: in vivo, mouse; settings: for Absolute Plasma PFAS Levels: Fold Change PFAS Female vs. PFAS Male / Absolute Plasma PFAS Levels: PFAS Female Average Concentration / Absolute Plasma PFAS Levels: PFAS male Average Concentration / Absolute Plasma PFAS Levels: Overall Average Concentration: 12 weeks; for Absolute Plasma PFAS Levels: PFAS Female Average Concentration: exposed females; for Absolute Plasma PFAS Levels: PFAS Female Average Concentration / Absolute Plasma PFAS Levels: PFAS male Average Concentration: 2 mg/L each in drinking water, n=3; for Absolute Plasma PFAS Levels: PFAS male Average Concentration: exposed males; for Absolute Plasma PFAS Levels: Overall Average Concentration: exposed mice of both sexes; for concentration at 12 weeks: C57BL/6J, mouse, plasma, oral
[2] = cited from earlier work; for Median serum concentration: general U.S. population, NHANES 2003-2004, ref Nelson et al. 2010
human PPARα = settings: ref Behr et al. 2020b, cited from earlier work; for PPARα activation compared to the positive control GW7647: even at concentrations 250 times greater than GW7647; for In vitro activation of human PPARα: reporter gene assays
[3] = ref Olsen et al. 2007; cited from earlier work
[4] = Relative plasma PFAS levels; format: in vivo, mouse; settings: for Relative Plasma PFAS Levels: Fold Change PFAS Female vs. PFAS Male / Relative Plasma PFAS Levels: Fold Change PFAS vs. Vehicle: 12 weeks of the 5-PFAS mixture, 2 mg/L each in drinking water; for Plasma level, fold increase in PFAS-exposed females compared to vehicle / Plasma level, fold increase in PFAS-exposed males compared to vehicle: 12 weeks
[5] = Relative hepatic PFAS levels; format: in vivo, mouse; settings: liver; for Relative Hepatic PFAS Levels: Fold Change PFAS Female vs. PFAS Male / Relative Hepatic PFAS Levels: Fold Change PFAS vs. Vehicle: 12 weeks of the 5-PFAS mixture, 2 mg/L each in drinking water; for Hepatic level, fold increase in PFAS-exposed females compared to vehicle / Hepatic level, fold increase in PFAS-exposed males compared to vehicle: 12 weeks
humans = settings: cited from earlier work

Compound	Absolute Plasma PFAS Levels: Fold Change PFAS Female vs. PFAS Male [1] [fold]	Absolute Plasma PFAS Levels: PFAS Female Average Concentration [1] [µg/mL]	Absolute Plasma PFAS Levels: PFAS male Average Concentration [1] [µg/mL]	Absolute Plasma PFAS Levels: Overall Average Concentration [1] [µg/mL]	Median serum concentration [2] [ng/mL]	concentration at 12 weeks ([1]; both) [ng/mL]	PPARα activation compared to the positive control GW7647 (human PPARα)	In vitro activation of human PPARα (human PPARα)	Biological half-life in human serum [3]	Relative Plasma PFAS Levels: Fold Change PFAS Female vs. PFAS Male [4] [fold]	Relative Plasma PFAS Levels: Fold Change PFAS vs. Vehicle [4] [fold]	Plasma level, fold increase in PFAS-exposed females compared to vehicle [4] [fold]	Plasma level, fold increase in PFAS-exposed males compared to vehicle [4] [fold]	Relative Hepatic PFAS Levels: Fold Change PFAS Female vs. PFAS Male [5] [fold]	Relative Hepatic PFAS Levels: Fold Change PFAS vs. Vehicle [5] [fold]	Hepatic level, fold increase in PFAS-exposed females compared to vehicle [5] [fold]	Hepatic level, fold increase in PFAS-exposed males compared to vehicle [5] [fold]	also measured
O=C(O)C(F)(F)C(F)(F)C(F)(F)C(F)(F)C(F)(F)C(F)(F)C(F)(F)C(F)(F)F [PFNA, perfluorononanoic acid]	0.8	33.7 ± 7.6	40.9 ± 10.6	37.3 ± 9.1														
O=C(O)C(F)(F)C(F)(F)C(F)(F)C(F)(F)C(F)(F)C(F)(F)C(F)(F)F [PFOA, perfluorooctanoic acid]	3.2	23.4 ± 9.0	7.3 ± 1.8		3.9	15400	60-90%	capable of PPARα activation	around 4 years	1.96	10270.75	10883.6	6936.8	2.43	1513.94	4693.4	571.9	Average serum concentration ([2]; populations occupationally exposed to PFOA, ref Sakr et al. 2007): 1.13 µg/mL; Predicted increase in total cholesterol from lowest to highest decile of PFOA (humans; exposed communities, ref Steenland et al. 2009): 11 to 12 mg/dL; Increase in total cholesterol associated with 1 ppm increase in serum PFOA (humans; occupationally exposed populations, ref Sakr et al. 2007): 1.06 mg/dL
N.O=C(O)C(F)(OC(F)(F)C(F)(F)C(F)(F)F)C(F)(F)F (stereo not shown) [GenX]	1.8					140	60-90%	capable of PPARα activation										Serum level in a population exposed to PFAS-contaminated water ([2]; not detected above limit of detection, ref Kotlarz et al. 2020): < 2 ng/mL; concentration at 12 weeks [1]: ~100 ng/g
O=S(=O)(O)C(F)(F)C(F)(F)C(F)(F)C(F)(F)C(F)(F)C(F)(F)F [PFHxS]	0.9					23800		capable of PPARα activation	~8.5 years	0.96		6491	5414.2	1.30	705.46	2035.7	387.1	
O=S(=O)(O)C(F)(F)C(F)(F)C(F)(F)C(F)(F)C(F)(F)C(F)(F)C(F)(F)C(F)(F)F [PFOS, Perfluorooctane sulfonate]	0.6	13.8 ± 2.3	22.5 ± 4.1	18.1 ± 5.6	21			capable of PPARα activation	~5 years	0.77	627.07	545.2	708.9	0.92	188.03	386.3	127.2	
